Reference: ChEMBL document CHEMBL1201862, “PubChem BioAssay data set” (2004)
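A five-concentration, 48-hour dose response in 96-well plates underlies each endpoint, interpolated linearly between surrounding concentrations. GI50 is the concentration that inhibits growth by half.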 Active and inactive are the calls of the source. No stated cut-off is given here; in the data, active = GI50 up to about 1.1 µM and inactive = higher.

Tests used:
Assay in all cases: NCI tumour cell line growth inhibition, 48 h
MOLT-4 = system: MOLT-4
HCC 2998 = system: HCC 2998
HT-29 = system: HT-29
UO-31 = system: UO-31
HL-60 = system: HL-60
LOX IMVI = system: LOX IMVI
NCI-H522 = system: NCI-H522
OVCAR-3 = system: OVCAR-3
COLO 205 = system: COLO 205
A549 = system: A549
SR = system: SR
U-251 = system: U-251
HOP-92 = system: HOP-92
OVCAR-8 = system: OVCAR-8
A498 = system: A498
SF-295 = system: SF-295
RPMI-8226 = system: RPMI-8226
NCI/ADR-RES = system: NCI/ADR-RES
MDA-MB-435 = system: MDA-MB-435
HCT-116 = system: HCT-116

SMILES | GI50 (MOLT-4) | GI50 (HCC 2998) | GI50 (HT-29) | GI50 (UO-31) | GI50 (HL-60) | GI50 (LOX IMVI) | GI50 (NCI-H522) | GI50 (OVCAR-3) | GI50 (COLO 205) | GI50 (A549) | GI50 (SR) | GI50 (U-251) | GI50 (HOP-92) | GI50 (OVCAR-8) | GI50 (A498) | GI50 (SF-295) | GI50 (RPMI-8226) | GI50 (NCI/ADR-RES) | GI50 (MDA-MB-435) | GI50 (HCT-116)
C=C1CCC2C(C)(CO)C(O)CCC2(C)C1C/C=C1\C(=O)OCC1O (stereo not given) | 28.2 µM (inactive) | 22.5 µM (inactive) | 5.28 µM (inactive) | 36.3 µM (inactive) | 16.2 µM (inactive) | 12.6 µM (inactive) | 10.4 µM (inactive) | 9.4 µM (inactive) | 14.8 µM (inactive) | 23.8 µM (inactive) | 1.01 µM (active) | 11.1 µM (inactive) | 27.8 µM (inactive) | 10.1 µM (inactive) | 32.7 µM (inactive) | 19.9 µM (inactive) | 5.42 µM (inactive) | 25 µM (inactive) | 10.3 µM (inactive) | 14.7 µM (inactive)
CCOC(=O)C(NC(=O)CC(C)C)(N1CCN(c2cc3c(cc2F)c(=O)c(C(=O)O)cn3C2CC2)CC1)C(F)(F)F (stereo not given) | 5.71 µM (inactive) | 12 µM (inactive) | 29.3 µM (inactive) | 17.9 µM (inactive) | 5.75 µM (inactive) | 15.8 µM (inactive) | 2.73 µM (inactive) | 14.7 µM (inactive) | 16.7 µM (inactive) | 27.5 µM (inactive) | 11.6 µM (inactive) | 14.7 µM (inactive) | 9.57 µM (inactive) | 21.1 µM (inactive) | 1.73 µM (inactive) | 21.3 µM (inactive) | 20.9 µM (inactive) | 19.7 µM (inactive) | 21.9 µM (inactive) | 20.4 µM (inactive)
COc1cc2c3c(c4cc(OC)c(OC)cc4c2cc1OC)[C@H](O)[C@@H]1CCCN1C3 | < 0.01 µM (active) | < 0.0243 µM (active) | < 0.0191 µM (active) | < 0.0337 µM (active) | < 0.0357 µM (active) | < 0.0265 µM (active) | < 0.0378 µM (active) | 0.0384 µM (active) | < 0.0179 µM (active) | < 0.0254 µM (active) | 0.029 µM (active) | < 0.0245 µM (active) | < 0.0478 µM (active) | < 0.0308 µM (active) | < 0.0208 µM (active) | < 0.0222 µM (active) | < 0.0253 µM (active) | < 0.0372 µM (active) | < 0.0265 µM (active) | < 0.0215 µM (active)
Nc1ccccc1SC(C[N+](=O)[O-])c1ccc2c(c1)OCO2 (stereo not given) | 2.3 µM (inactive) | 1.78 µM (inactive) | 1.89 µM (inactive) | 1.87 µM (inactive) | 1.9 µM (inactive) | 1.75 µM (inactive) | 14.1 µM (inactive) | 3.28 µM (inactive) | 3.71 µM (inactive) | 3.1 µM (inactive) | 1.91 µM (inactive) | 2.64 µM (inactive) | 15.6 µM (inactive) | 2.78 µM (inactive) | 8.39 µM (inactive) | 4.89 µM (inactive) | 1.22 µM (inactive) | 20.5 µM (inactive) | 2.32 µM (inactive) | 1.81 µM (inactive)
O=[N+]([O-])C(/C=C(\Cl)[N+](=O)[O-])=C(Nc1ccccc1)Nc1ccccc1 | 1.75 µM (inactive) | 21.4 µM (inactive) | 6.21 µM (inactive) | 12.1 µM (inactive) | 2.59 µM (inactive) | 16 µM (inactive) | 2.21 µM (inactive) | 5.19 µM (inactive) | 8.53 µM (inactive) | 17 µM (inactive) | 2.6 µM (inactive) | 14.3 µM (inactive) | 4.69 µM (inactive) | 8.41 µM (inactive) | 17.9 µM (inactive) | 17.3 µM (inactive) | 2.28 µM (inactive) | 7.93 µM (inactive) | 5 µM (inactive) | 1.98 µM (inactive)
CC1(C)C(=O)N=C(N)N1C(=O)OCc1ccccc1 | > 100 µM (inactive) | > 100 µM (inactive) | > 100 µM (inactive) | 67.6 µM (inactive) | > 100 µM (inactive) | > 100 µM (inactive) | > 100 µM (inactive) | > 100 µM (inactive) | > 100 µM (inactive) | > 100 µM (inactive) | > 100 µM (inactive) | > 100 µM (inactive) | > 100 µM (inactive) | > 100 µM (inactive) | > 100 µM (inactive) | > 100 µM (inactive) | > 100 µM (inactive) | > 100 µM (inactive) | > 100 µM (inactive) | > 100 µM (inactive)
N=C(N)SCCCN | 0.368 µM (active) | 0.0455 µM (active) | 16 µM (inactive) | 17.7 µM (inactive) | 1.87 µM (inactive) | 3.3 µM (inactive) | 5.41 µM (inactive) | 9.57 µM (inactive) | 13.7 µM (inactive) | 37.7 µM (inactive) | 3.3 µM (inactive) | 6.11 µM (inactive) | 4.94 µM (inactive) | 3.87 µM (inactive) | 32.1 µM (inactive) | 21.6 µM (inactive) | 18.5 µM (inactive) | 5.02 µM (inactive) | 3.18 µM (inactive) | 3.86 µM (inactive)
